Here are results for 17 molecules from ChEMBL document CHEMBL3044866, “A facile and single pot strategy for the synthesis of novel naphthyridine derivatives under microwave irradiation conditions using ZnCl2 as catalyst, evaluation of AChE inhibitory activity, and molecular modeling studies” (Med Chem Res, 2012).

Data set [1] has as its target Acetylcholinesterase (Homo sapiens, UniProt P22303). Kind of data set: Inhibition of AChE (unknown origin) after 10 min by Ellmans method.
A short description of data set [2]: in vitro. Particulars: human, THLE2 cells.
Description: Cytotoxicity against Homo sapiens (human) THLE2 cells assessed as viable cells at 0.5 uM after 48 hr by MTT assay
Data set [3] in a line: in vitro. Particulars: human, THLE2 cells. The source holds these as a separate data set.
Description: Cytotoxicity against Homo sapiens (human) THLE2 cells assessed as viable cells at 10 uM after 48 hr by MTT assay
Data set [4] can be described thus: in vitro. Particulars: human, THLE2 cells. The source holds these as a separate data set.
Description: Cytotoxicity against Homo sapiens (human) THLE2 cells assessed as viable cells at 1 uM after 48 hr by MTT assay
Data set [5] is described as follows: Cytotoxicity against Homo sapiens (human) THLE2 cells assessed as cell death at 10 uM after 48 hr by MTT assay. Format: cell-based. Particulars: thle-2, 48 h. Background: Tetrazolium dyes change colour on reduction, which living cells bring about.

The structures appear in SMILES notation. pIC50: −log10 of the molar value.

Sequence of Acetylcholinesterase (P22303 whole entry): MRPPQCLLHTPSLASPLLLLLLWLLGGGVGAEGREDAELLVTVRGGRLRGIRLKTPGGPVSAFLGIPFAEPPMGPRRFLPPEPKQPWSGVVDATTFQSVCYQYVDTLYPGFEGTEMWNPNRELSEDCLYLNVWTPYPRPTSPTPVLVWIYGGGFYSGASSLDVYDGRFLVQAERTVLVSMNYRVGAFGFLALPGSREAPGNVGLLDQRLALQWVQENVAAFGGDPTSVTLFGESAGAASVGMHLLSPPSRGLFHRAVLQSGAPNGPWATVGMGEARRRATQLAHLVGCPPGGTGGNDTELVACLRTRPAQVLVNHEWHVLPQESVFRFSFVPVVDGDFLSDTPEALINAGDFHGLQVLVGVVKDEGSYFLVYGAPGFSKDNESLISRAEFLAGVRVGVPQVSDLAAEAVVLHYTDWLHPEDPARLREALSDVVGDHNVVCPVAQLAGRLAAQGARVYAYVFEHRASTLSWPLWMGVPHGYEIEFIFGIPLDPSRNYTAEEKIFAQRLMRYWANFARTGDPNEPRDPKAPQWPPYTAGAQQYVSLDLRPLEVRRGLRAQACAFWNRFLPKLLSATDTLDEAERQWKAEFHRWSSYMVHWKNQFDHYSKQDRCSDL

For `Nc1cc(-c2ccccc2)nc2nc(-c3ccccc3)cc(C(F)(F)F)c12`, in data set [1], the pIC50 – broadly, −log10 of the IC50, conventionally taken in molar units – is 5.15.
Take `Nc1c2c(nc3nc(-c4ccccc4)cc(C(F)(F)F)c13)CCC2`: the pIC50 in data set [1] is 5.09.
In data set [1], `Nc1c2c(nc3nc(-c4ccccc4)cc(C(F)(F)F)c13)CCCCC2` gave a pIC50 of 4.99.
The same measure, in the same setting: as for `Nc1cc(-c2ccc(F)cc2)nc2nc(-c3ccccc3)cc(C(F)(F)F)c12`, the figure is 5.18.
With `Nc1c2c(nc3nc(-c4ccccc4)cc(C(F)(F)F)c13)-c1ccccc1CC2`, the pIC50 in data set [1] was 4.64.
`Nc1cc(-c2ccccc2Br)nc2nc(-c3ccccc3)cc(C(F)(F)F)c12`: the pIC50 in data set [1] is 6.05. Besides, the viability (as a rule, a read-out of living cells in per cent, often relative to untreated cells) at 48 h, 0.5 µM in data set [2] worked out at 98.7%. This molecule also returned a viability at 48 h, 10 µM in data set [3] of 99.9%. For the same molecule, in data set [4], the viability at 48 h, 1 µM came out at 95.9%.
In data set [1], `Nc1c2c(nc3nc(-c4ccccc4)cc(C(F)(F)F)c13)CCCCCC2` showed a pIC50 of 5.11.
Regarding `Nc1cc(-c2ccc(Cl)cc2)nc2nc(-c3ccccc3)cc(C(F)(F)F)c12`, in data set [5], the Activity is given as 16%. This molecule also had a pIC50 in data set [1] of 6.28. The molecule also registered a viability at 48 h, 0.5 µM in data set [2] of 97.1%. The molecule further showed a viability at 48 h, 10 µM in data set [3] of 84.2%. In addition, in data set [4], the viability at 48 h, 1 µM worked out at 98.1%.
`CC1CCc2nc3nc(-c4ccccc4)cc(C(F)(F)F)c3c(N)c2C1` (centres undefined) had a pIC50 in data set [1] of 6.29.
In turn, `Nc1c2c(nc3nc(-c4ccccc4)cc(C(F)(F)F)c13)-c1ccccc1C2` showed a pIC50 in data set [1] of 4.76.
For the molecule `CC(C)Cc1cc(N)c2c(C(F)(F)F)cc(-c3ccccc3)nc2n1`, in data set [1], the pIC50 was 4.72.
The same measure, in the same setting: as for `COc1ccc(-c2cc(N)c3c(C(F)(F)F)cc(-c4ccccc4)nc3n2)cc1`, the figure is 5.08; as for `Nc1cc(-c2cccs2)nc2nc(-c3ccccc3)cc(C(F)(F)F)c12`, 4.98; as for `CC1CCc2c(nc3nc(-c4ccccc4)cc(C(F)(F)F)c3c2N)C1` (centres undefined), 5.49.
The same measure, in the same setting: as for `CC1Cc2nc3nc(-c4ccccc4)cc(C(F)(F)F)c3c(N)c2C1` (centres undefined), the figure is 5.03; as for `Nc1cc(-c2cccc(F)c2)nc2nc(-c3ccccc3)cc(C(F)(F)F)c12`, 5.15.
In data set [1], `Nc1c2c(nc3nc(-c4ccccc4)cc(C(F)(F)F)c13)CCCC2` had a pIC50 of 6.46.
